Source: US20140099256A1, “RADIOACTIVE LUMINESCENT NANOPARTICLE COMPOSITIONS” (The Board of Regents of the University of Texas System, priority 2012, published 2014)

Assays:
Assay type in all cases: in vivo, BALB/c mice
[1] = Renal clearance kinetics (copper content in urine) of GS-CuNPs and Cu(II)-GSSG complex
Method: (§1) FIGS. 2A to 2E show (A) Ex vivo fluorescent images of urine of control mice or mice injected with luminescent GS-CuNPs (λex=510 nm, λem=790 nm); (B) Copper contents (n=6) in the urine at different times post injection (p.i.); (C) Biodistribution of Cu(II)-GSSG complex and luminescent GS-CuNPs in BALB/c mice (n=6) 24 h after the tail-vein injection; (D) Liver-tourine ratios of Cu(II)-GSSG complex and GS-CuNPs at 24 h p.i; (E) Pharmacokinetics (n=3) of the renal clearable Cu(II)-GSSG complex and luminescent GS-CuNPs in 24 h p.i.
Although “being small” is generally seen as an efficient approach to boost the clearance of biomaterials from the body, the avidity between materials and serum proteins also plays an important role in the excretion. Seemingly a dilemma, it is hard to know which factors in the renal excretion of GS-CuNPs and Cu(II)-GSSG complex are reliably important. As such, the renal clearance kinetics and biodistribution of GS-CuNPs and Cu(II)-GSSG complex were evaluated in BALB/c mice (FIGS. 2A and 2B). For GS-CuNPs, 78.5±3.5% of injected copper was excreted from the body into the urine after 24 h p.i., and over 60% of copper was actually eliminated from the body in the first 2 h p.i (FIG. 2B).

[2] = Blood pharmacokinetics of Cu(II)-GSSG complex and GS-CuNPs; conditions: 24 h p.i.
Method: as §1
(§2) The detailed biodistribution studies of mice injected with GS-CuNPs and Cu(II)-GSSG complexes were consistent with their renal clearance profiles (FIG. 2C). In view of the background of copper, the average copper contents in the various organs/tissues and urine from three BALB/c mice have been deducted. […] However, compared to free Cu ions that often bind to caeruloplasmin and hephaestin and mainly accumulate in the liver, both GS-CuNPs and Cu(II)-GSSG complexes had much lower accumulation in RES, which was because GSH minimized the serum protein absorption and render them the efficient renal clearance. […] As a result, liver-to-urine ratio (−0.16) of CuNPs is more than 4 times lower than that of Cu(II)-GSSG complex (FIG. 2D).

[3] = Biodistribution of Cu(II)-GSSG complex and GS-CuNPs after tail-vein injection; conditions: 24 h after tail-vein injection, background copper deducted
Method: as §1, §2

In the case of Cu(II)-GSSG complex, the “additional increase in urine excretion of copper metal” value ([1]; after 2 h) is reported as −18%, the copper found in the urine ([1]; at 2 h p.i.) is reported as 22 % ID and the “distribution half-life t½α” value [2] is reported as 0.228 ± 0.0167 h. The “terminal elimination half-life (t½β)” value [2] was 4.93 ± 0.94 h, the “copper found in the liver” value [3] was 29.6±8.1 % ID and the “copper found in the spleen” value [3] was roughly 0.1 % ID.
